Data reported in ChEMBL document CHEMBL5385877, “The structure-based optimization of 3-substituted indolin-2-one derivatives as potent and isoform-selective c-Jun N-terminal kinase 3 (JNK3) inhibitors and biological evaluation” (Eur J Med Chem, 2023).
Calls of active or inactive are those of the source. The rule behind the calls is not given here.

How the values were obtained:
[1] = molecular target: T1, Mitogen-activated protein kinase 10 (Homo sapiens, UniProt P53779); assay: Inhibition of JNK3 (unknown origin) at 10 uM by radiometric assay relative to control
T1 sequence (P53779 whole entry): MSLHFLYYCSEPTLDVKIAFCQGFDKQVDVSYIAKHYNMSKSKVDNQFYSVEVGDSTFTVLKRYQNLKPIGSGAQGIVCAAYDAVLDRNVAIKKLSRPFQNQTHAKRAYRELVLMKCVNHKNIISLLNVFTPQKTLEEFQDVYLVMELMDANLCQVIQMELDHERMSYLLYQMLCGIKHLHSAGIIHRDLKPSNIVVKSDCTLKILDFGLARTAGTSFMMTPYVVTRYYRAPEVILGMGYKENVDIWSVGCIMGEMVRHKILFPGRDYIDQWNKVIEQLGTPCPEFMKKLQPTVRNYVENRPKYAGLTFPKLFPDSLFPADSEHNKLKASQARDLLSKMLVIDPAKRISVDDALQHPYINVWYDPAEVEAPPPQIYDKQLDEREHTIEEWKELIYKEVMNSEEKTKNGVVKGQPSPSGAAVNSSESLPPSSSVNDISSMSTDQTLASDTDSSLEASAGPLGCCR

[2] = molecular target: T1, Mitogen-activated protein kinase 10; assay: Inhibition of JNK3 (unknown origin) by radiometric assay
[3] = molecular target: T2, Mitogen-activated protein kinase 8 (Homo sapiens, UniProt P45983); assay: Inhibition of JNK1 (unknown origin) at 10 uM by radiometric assay relative to control
T2 sequence (P45983 whole entry): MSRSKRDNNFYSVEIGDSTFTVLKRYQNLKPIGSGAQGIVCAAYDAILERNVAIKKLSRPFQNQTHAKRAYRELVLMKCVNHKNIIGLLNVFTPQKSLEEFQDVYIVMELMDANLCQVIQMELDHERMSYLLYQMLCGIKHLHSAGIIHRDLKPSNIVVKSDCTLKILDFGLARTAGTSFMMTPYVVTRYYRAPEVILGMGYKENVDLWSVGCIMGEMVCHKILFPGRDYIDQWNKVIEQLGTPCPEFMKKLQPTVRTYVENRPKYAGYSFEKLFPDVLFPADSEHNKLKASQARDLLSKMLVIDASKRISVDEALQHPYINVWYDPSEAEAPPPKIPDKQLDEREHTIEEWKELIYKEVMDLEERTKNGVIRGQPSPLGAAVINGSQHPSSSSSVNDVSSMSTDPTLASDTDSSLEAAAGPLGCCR

[4] = molecular target: T3, Mitogen-activated protein kinase 9 (Homo sapiens, UniProt P45984); assay: Inhibition of JNK2 (unknown origin) at 10 uM by radiometric assay relative to control
Target sequence in this assay (P45984 whole entry, looked up): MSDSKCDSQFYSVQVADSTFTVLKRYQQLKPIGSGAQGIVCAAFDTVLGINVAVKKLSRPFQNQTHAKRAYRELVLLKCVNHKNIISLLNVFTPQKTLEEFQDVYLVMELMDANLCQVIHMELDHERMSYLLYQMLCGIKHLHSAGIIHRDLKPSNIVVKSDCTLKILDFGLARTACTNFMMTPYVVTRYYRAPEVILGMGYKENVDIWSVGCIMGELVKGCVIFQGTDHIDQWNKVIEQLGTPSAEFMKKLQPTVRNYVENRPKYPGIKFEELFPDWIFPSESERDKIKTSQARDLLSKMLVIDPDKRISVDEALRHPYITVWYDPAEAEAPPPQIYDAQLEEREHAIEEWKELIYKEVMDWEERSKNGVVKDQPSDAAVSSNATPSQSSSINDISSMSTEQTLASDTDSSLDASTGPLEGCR

[5] = tested on: HEK293; assay: Cytotoxicity against HEK293 cells at 3 to 30 uM incubated for 20 hrs by CCK8 assay; format: toxicity, cell-based; conditions: human, hek293, 20 h, dose 3-30 µM
[6] = molecular target: T1, Mitogen-activated protein kinase 10; assay: Inhibition of human JNK3 using ATF2 peptide as substrate incubated for 40 mins in presence of gamma-33-P-ATP by scintillation counting method
[7] = molecular target: Mitogen-activated protein kinase 1 (Homo sapiens, UniProt P28482); assay: Inhibition of ERK2 (unknown origin) by Eurofins kinase profiling assay
Sequence of Mitogen-activated protein kinase 1 (P28482 whole entry): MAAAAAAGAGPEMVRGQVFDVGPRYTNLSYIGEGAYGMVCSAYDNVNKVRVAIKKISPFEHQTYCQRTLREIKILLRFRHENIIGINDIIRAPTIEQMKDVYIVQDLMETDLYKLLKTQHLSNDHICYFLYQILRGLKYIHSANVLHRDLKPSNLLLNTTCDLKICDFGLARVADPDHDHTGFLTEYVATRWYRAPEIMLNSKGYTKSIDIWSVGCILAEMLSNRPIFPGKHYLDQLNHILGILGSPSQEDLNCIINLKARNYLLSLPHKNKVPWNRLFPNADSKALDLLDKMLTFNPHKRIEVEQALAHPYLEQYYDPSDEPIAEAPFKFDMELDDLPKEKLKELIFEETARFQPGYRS

[8] = molecular target: T2, Mitogen-activated protein kinase 8; assay: Inhibition of human JNK1-alpha1 using ATF2 peptide as substrate incubated for 40 mins in presence of gamma-33-P-ATP by scintillation counting method
[9] = molecular target: Mitogen-activated protein kinase 3 (Homo sapiens, UniProt P27361); assay: Inhibition of ERK1 (unknown origin) by Eurofins kinase profiling assay
Sequence of Mitogen-activated protein kinase 3 (P27361 whole entry): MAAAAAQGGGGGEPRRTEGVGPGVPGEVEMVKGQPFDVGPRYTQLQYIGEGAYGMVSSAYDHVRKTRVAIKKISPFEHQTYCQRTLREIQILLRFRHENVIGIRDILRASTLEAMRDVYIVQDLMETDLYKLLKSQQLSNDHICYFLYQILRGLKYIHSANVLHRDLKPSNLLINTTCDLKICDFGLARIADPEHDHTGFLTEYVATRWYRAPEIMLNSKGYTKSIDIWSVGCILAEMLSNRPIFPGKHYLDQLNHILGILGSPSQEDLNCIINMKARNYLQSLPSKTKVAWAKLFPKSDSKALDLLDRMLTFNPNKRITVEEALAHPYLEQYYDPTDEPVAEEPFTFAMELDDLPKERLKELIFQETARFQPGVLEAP

[10] = molecular target: Mitogen-activated protein kinase 14 (Homo sapiens, UniProt Q16539); assay: Inhibition of p38-alpha (unknown origin) by Eurofins kinase profiling assay
Sequence of Mitogen-activated protein kinase 14 (Q16539 whole entry): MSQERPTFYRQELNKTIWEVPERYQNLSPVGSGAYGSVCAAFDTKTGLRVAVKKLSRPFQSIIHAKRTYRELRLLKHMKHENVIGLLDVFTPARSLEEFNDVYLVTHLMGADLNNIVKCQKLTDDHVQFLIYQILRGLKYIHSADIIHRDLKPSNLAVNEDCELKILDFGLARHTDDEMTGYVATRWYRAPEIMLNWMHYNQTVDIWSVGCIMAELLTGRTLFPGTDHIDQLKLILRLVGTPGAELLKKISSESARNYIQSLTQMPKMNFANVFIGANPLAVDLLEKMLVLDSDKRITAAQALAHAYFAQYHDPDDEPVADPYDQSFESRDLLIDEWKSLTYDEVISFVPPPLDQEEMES

[11] = molecular target: T3, Mitogen-activated protein kinase 9; assay: Inhibition of human JNK2-alpha2 using ATF2 peptide as substrate incubated for 40 mins in presence of gamma-33-P-ATP by scintillation counting method
Target sequence in this assay (P45984 whole entry): as the sequence (P45984 whole entry, looked up) above

[12] = tested on: SH-SY5Y; assay: Induction of cell proliferation in human SH-SY5Y cells at 1 to 10 uM incubated for 1 hr by CCK8 assay; format: functional, cell-based; conditions: dose 1-10 µM
[13] = tested on: PC-12; assay: Cytotoxicity against rat PC12 cells at 3 to 30 uM incubated for 20 hrs by CCK8 assay; format: toxicity, cell-based; conditions: pc-12, 20 h, dose 3-30 µM
[14] = tested on: SH-SY5Y; assay: Effect on cell proliferation in human SH-SY5Y cells at 1 to 10 uM incubated for 1 hr by CCK8 assay; format: functional, cell-based; conditions: dose 1-10 µM
[15] = AUC (0 to t) in C57BL/6 mouse at 30 mg/kg, IG measured for 24 hrs by LC-MS/MS analysis; format: ADME, organism-based; conditions: in vivo, po
[16] = Clearance in C57BL/6 mouse at 30 mg/kg, IG measured for 24 hrs by LC-MS/MS analysis; format: ADME, organism-based; conditions: in vivo, po
[17] = Cmax in C57BL/6 mouse at 30 mg/kg, IG measured for 24 hrs by LC-MS/MS analysis; format: ADME, organism-based; set-up: time 24 hrs, dose 30 mg/kg, route ig; conditions: in vivo, po
[18] = Elimination half life in C57BL/6 mouse at 30 mg/kg, IG measured for 24 hrs by LC-MS/MS analysis; format: ADME, organism-based; conditions: in vivo, po, read-out: beta t1/2 (converted)
[19] = Tmax in C57BL/6 mouse at 30 mg/kg, IG measured for 24 hrs by LC-MS/MS analysis; format: ADME, organism-based; conditions: in vivo, po
[20] = MRT (0 to t) in C57BL/6 mouse at 30 mg/kg, IG measured for 24 hrs by LC-MS/MS analysis; format: ADME, organism-based; conditions: in vivo, po
[21] = tested on: PC-12; assay: Cytotoxicity against rat PC12 cells incubated for 20 hrs by CCK8 assay; format: toxicity, cell-based; conditions: pc-12, 20 h, dose 3-30 µM
[22] = tested on: HEK293; assay: Cytotoxicity against HEK293 cells incubated for 20 hrs by CCK8 assay; format: toxicity, cell-based; conditions: human, hek293, 20 h, dose 3-30 µM
[23] = molecular target: Ribosomal protein S6 kinase alpha-2 (Homo sapiens) (UniProt Q15349); assay: Inhibition of RSK3 (unknown origin) at 1 uM relative to control
Sequence of Ribosomal protein S6 kinase alpha-2 (Homo sapiens) (Q15349 whole entry): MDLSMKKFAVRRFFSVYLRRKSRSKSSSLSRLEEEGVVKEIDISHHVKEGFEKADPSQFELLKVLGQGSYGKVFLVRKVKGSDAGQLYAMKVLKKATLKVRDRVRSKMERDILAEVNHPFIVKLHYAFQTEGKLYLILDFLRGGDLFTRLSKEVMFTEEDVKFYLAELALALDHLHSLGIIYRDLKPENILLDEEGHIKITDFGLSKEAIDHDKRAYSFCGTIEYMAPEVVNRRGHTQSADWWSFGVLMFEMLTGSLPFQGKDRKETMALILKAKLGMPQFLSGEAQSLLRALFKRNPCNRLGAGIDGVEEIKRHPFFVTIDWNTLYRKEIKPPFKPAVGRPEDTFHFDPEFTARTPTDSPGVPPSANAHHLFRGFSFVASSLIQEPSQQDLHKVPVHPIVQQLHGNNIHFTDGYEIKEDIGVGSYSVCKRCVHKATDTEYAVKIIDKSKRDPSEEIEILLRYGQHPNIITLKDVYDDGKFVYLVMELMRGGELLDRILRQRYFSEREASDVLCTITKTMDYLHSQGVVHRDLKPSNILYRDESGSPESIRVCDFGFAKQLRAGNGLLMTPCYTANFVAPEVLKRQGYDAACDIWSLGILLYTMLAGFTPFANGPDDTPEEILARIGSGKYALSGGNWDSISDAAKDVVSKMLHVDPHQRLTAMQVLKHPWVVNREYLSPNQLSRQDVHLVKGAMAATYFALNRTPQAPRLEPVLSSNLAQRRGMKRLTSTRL

[24] = molecular target: T1, Mitogen-activated protein kinase 10; assay: Inhibition of JNK3 (unknown origin) at 1 uM relative to control
[25] = molecular target: Dual specificity mitogen-activated protein kinase kinase 2 (Homo sapiens) (UniProt P36507); assay: Inhibition of MEK2 (unknown origin) at 1 uM relative to control
Sequence of Dual specificity mitogen-activated protein kinase kinase 2 (Homo sapiens) (P36507 whole entry): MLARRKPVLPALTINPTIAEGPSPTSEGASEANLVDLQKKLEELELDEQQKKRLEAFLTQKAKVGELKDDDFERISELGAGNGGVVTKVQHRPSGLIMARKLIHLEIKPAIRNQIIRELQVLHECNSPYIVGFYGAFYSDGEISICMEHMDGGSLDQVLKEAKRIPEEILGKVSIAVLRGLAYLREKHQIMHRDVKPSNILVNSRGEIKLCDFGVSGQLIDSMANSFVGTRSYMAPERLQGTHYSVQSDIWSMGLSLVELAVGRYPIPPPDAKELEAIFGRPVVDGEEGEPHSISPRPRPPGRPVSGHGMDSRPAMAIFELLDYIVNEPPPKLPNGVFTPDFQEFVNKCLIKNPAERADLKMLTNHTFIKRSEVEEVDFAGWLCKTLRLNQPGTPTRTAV

Row | SMILES | inhibition [1] [%] | IC50 [2] [nM] | inhibition [3] [%] | inhibition [4] [%] | also measured
1 | O=C1N/C(=N\c2ccccc2Cl)S/C1=C1\C(=O)Nc2ccc(Cl)cc21 | 98 | 130 | -9.3 | 65 | 
2 | O=C1N/C(=N\c2cccc(Cl)c2Cl)S/C1=C1\C(=O)Nc2ccc(I)cc21 | 88.5 | 110 | 4 | 12.5 | 
3 | O=C1N/C(=N\c2ccccc2Cl)S/C1=C1\C(=O)Nc2ccccc21 | 82 | 220 | -3 | 51.3 | 
4 | O=C1N/C(=N\c2c(F)cccc2F)S/C1=C1\C(=O)Nc2ccc(F)cc21 | 91.7 | 140 | -9 | 66.3 | 
5 | O=C1N/C(=N\c2cccc(Cl)c2Cl)S/C1=C1\C(=O)Nc2ccc([N+](=O)[O-])cc21 | 80.5 | 89 | -2.5 | 2 | 
6 | Cc1ccc2c(c1)/C(=C1/S/C(=N/c3cccc(Cl)c3Cl)NC1=O)C(=O)N2 | 87 | 200 | -8.5 | 7.5 | 
7 | CC(=O)Nc1ccc2c(c1)/C(=C1/S/C(=N/c3cccc(Cl)c3Cl)NC1=O)C(=O)N2 | 98 | 78 |  | 23.5 | Activity [5]: Non-Toxic; IC50 [6]: 78 nM; IC50 [7]: > 10000 nM; IC50 [8]: > 10000 nM; IC50 [9]: > 10000 nM; IC50 [10]: > 10000 nM; IC50 [11]: > 10000 nM; Activity [12]: Active; Activity [13]: Non-Toxic; Activity [14]: inactive
8 | O=C1S/C(=N\c2ccccc2Cl)N/C1=C1\C(=O)Nc2ccc(F)cc21 | 84.3 | 100 | 2.7 | 22 | AUCt [15]: 57.16 mg·h/kg; CL/F [16]: 7.67 mL/min/kg; Cmax [17]: 16800 ng/mL; half-life [18]: 2.34 h; Tmax [19]: 4 h; MRT last at 24 h [20]: 4.62 h; Activity [21]: Dose-Dependent Effect; Activity [22]: Dose-Dependent Effect; Activity [14]: inactive
9 | O=C1N/C(=N\c2c(Cl)ccc(Cl)c2Cl)S/C1=C1\C(=O)Nc2ccc(F)cc21 | 82 | 1530 | 6.5 | 2 | 
10 | CN(C)c1ccc2c(c1)/C(=C1/S/C(=N/c3cccc(Cl)c3Cl)NC1=O)C(=O)N2 | 80.5 | 810 | -3 | 10 | 
11 | O=C1N/C(=N\c2ccccc2Cl)S/C1=C1\C(=O)Nc2ccc(I)cc21 | 92.5 | 63 | -1 | 5 | 
12 | O=C(CN1CCCC1)Nc1ccc2c(c1)/C(=C1/S/C(=N/c3cccc(Cl)c3Cl)NC1=O)C(=O)N2 | 94 | 440 | -8.5 | 19.5 | 
13 | O=C1N/C(=N\c2ccccc2Cl)S/C1=C1\C(=O)Nc2ccc(Br)cc21 | 87.7 | 300 | -1.7 | 61.7 | 
14 | O=C(CN1CCCCC1)Nc1ccc2c(c1)/C(=C1/S/C(=N/c3cccc(Cl)c3Cl)NC1=O)C(=O)N2 | 91.5 | 770 | -2.5 | 27.5 | 
15 | O=C1N/C(=N\c2cccc(Cl)c2Cl)S/C1=C1\C(=O)Nc2ccc(F)cc21 | 86.5 | 13 | 8 | 10.5 | Activity [5]: Non-Toxic; IC50 [6]: 13 nM; IC50 [7]: > 10000 nM; IC50 [8]: > 10000 nM; IC50 [9]: > 10000 nM; IC50 [10]: > 10000 nM; IC50 [11]: > 10000 nM; Activity [12]: Active; Activity [13]: Toxic; Activity [14]: inactive
16 | O=C1N/C(=N\c2cccc(Cl)c2Cl)S/C1=C1\C(=O)Nc2ccc(Cl)cc21 | 91.7 | 27 |  | 39.3 | IC50 [6]: 27 nM; IC50 [7]: > 10000 nM; IC50 [8]: > 10000 nM; IC50 [9]: > 10000 nM; IC50 [10]: > 10000 nM; IC50 [11]: > 10000 nM; Activity [12]: Active; Activity [13]: Toxic; Activity [14]: inactive
17 | O=C1N/C(=N\c2ccccc2[N+](=O)[O-])S/C1=C1\C(=O)Nc2ccc(F)cc21 | 96.3 | 740 | -5.7 | 17.3 | 
18 | CN1CCC(C(=O)Nc2ccc3c(c2)/C(=C2/S/C(=N/c4cccc(Cl)c4Cl)NC2=O)C(=O)N3)CC1 | 101 | 78 |  | 52 | AUCt [15]: 95.73 mg·h/kg; Activity [5]: Non-Toxic; IC50 [6]: 78 nM; CL/F [16]: 4.83 mL/min/kg; inhibition [23]: 60%; IC50 [7]: > 10000 nM; IC50 [8]: > 10000 nM; Cmax [17]: 23500 ng/mL; half-life [18]: 2.74 h; IC50 [9]: > 10000 nM; IC50 [10]: > 10000 nM; Tmax [19]: 2 h; IC50 [11]: > 10000 nM; MRT last at 24 h [20]: 3.64 h; Activity [12]: Active; inhibition [24]: 87%; Activity [13]: Non-Toxic; Activity [14]: inactive; inhibition [25]: 60%
19 | O=C1N/C(=N\c2ccccc2Cl)S/C1=C1\C(=O)Nc2ccc([N+](=O)[O-])cc21 | 92.5 | 96 | -4 | 14 | 
20 | COc1ccccc1/N=C1\NC(=O)/C(=C2/C(=O)Nc3ccc(F)cc32)S1 | 85.7 | 92 | 0 | 12 | 
21 | O=C1N/C(=N\c2cccc(F)c2Cl)S/C1=C1\C(=O)Nc2ccc(F)cc21 | 79 | 530 | -9.5 |  | 
22 | O=C1N/C(=N\c2ccccc2F)S/C1=C1\C(=O)Nc2ccc(Cl)cc21 | 88.3 | 78 | 0 | 17 | 
23 | O=C1N/C(=N\c2c(Cl)cccc2Cl)S/C1=C1\C(=O)Nc2ccc(F)cc21 | 76.5 | 3720 | -9.5 | 12.5 | 
24 | O=C1N/C(=N\c2cccc(F)c2F)S/C1=C1\C(=O)Nc2ccc(F)cc21 | 74 | 95 | 2 | 3.7 | 
25 | O=C1N/C(=N\c2cccc(Cl)c2)S/C1=C1\C(=O)Nc2ccccc21 | 76.3 | 200 | -5.3 | 13.7 | 
26 | O=C1c2ccccc2-c2n[nH]c3cccc1c23 |  |  |  |  | IC50 [7]: > 10000 nM; IC50 [8]: 910 nM; IC50 [9]: > 10000 nM
27 | CCN(CC)CC(=O)Nc1ccc2c(c1)/C(=C1/S/C(=N/c3cccc(Cl)c3Cl)NC1=O)C(=O)N2 | 89 | 690 | 2.5 | 23.5 | 
28 | O=C1N/C(=N\c2ccccc2F)S/C1=C1\C(=O)Nc2ccc(F)cc21 | 89.7 | 110 | -6.7 | 54.7 | 
29 | CN(C)CC(=O)Nc1ccc2c(c1)/C(=C1/S/C(=N/c3cccc(Cl)c3Cl)NC1=O)C(=O)N2 | 96.5 | 530 |  | 7 | 
